According to ChEMBL document CHEMBL1150916, “Isolation of 2-(3'-bromo-4'-hydroxyphenol)ethanamine from the New Zealand ascidian Cnemidocarpa bicornuta” (J Nat Prod, 1998):
The source made the active and inactive calls. No cut-off for these calls is given here.

Columns and labels:
Bacillus subtilis = test: Antibacterial activity against Bacillus subtilis; assay type: functional, organism-based
Pseudomonas aeruginosa = test: Antibacterial activity against Pseudomonas aeruginosa; assay type: functional, organism-based
P388 = test: Cytotoxicity against mouse P388 cells; assay type: functional, cell-based
Escherichia coli = test: Antibacterial activity against Escherichia coli; assay type: functional, organism-based
Candida albicans = test: Antifungal activity against Candida albicans; assay type: functional, organism-based

Row | Compound | Activity (Bacillus subtilis) | Activity (Pseudomonas aeruginosa) | IC50 (P388) | Activity (Escherichia coli) | Activity (Candida albicans) | Activity (P388)
1 | NCCc1ccc(O)c(Br)c1 | inactive | inactive | 46 µM | inactive | inactive | –
2 | Cn1c(=N)c2nc[nH]c2n(C)c1=O | inactive | inactive | – | inactive | inactive | inactive
